Measured values as given in US5317015A, “Azacyclic bisphosphonates as anticholesterolemic agents” (Rhone-Poulenc Rorer Pharmaceuticals Inc., priority 1992, dated 1994).

Molecular target: T1, squalene synthetase (Rattus norvegicus, UniProt Q02769)
T1 construct: The brown outer microsomal layer is carefully removed with a spatula and placed in a beaker on ice; from tissue; host or cells: liver microsomes of male Sprague-Dawley rats (105,000 g pellet, washed, not purified)
T1 sequence (Q02769 1-416): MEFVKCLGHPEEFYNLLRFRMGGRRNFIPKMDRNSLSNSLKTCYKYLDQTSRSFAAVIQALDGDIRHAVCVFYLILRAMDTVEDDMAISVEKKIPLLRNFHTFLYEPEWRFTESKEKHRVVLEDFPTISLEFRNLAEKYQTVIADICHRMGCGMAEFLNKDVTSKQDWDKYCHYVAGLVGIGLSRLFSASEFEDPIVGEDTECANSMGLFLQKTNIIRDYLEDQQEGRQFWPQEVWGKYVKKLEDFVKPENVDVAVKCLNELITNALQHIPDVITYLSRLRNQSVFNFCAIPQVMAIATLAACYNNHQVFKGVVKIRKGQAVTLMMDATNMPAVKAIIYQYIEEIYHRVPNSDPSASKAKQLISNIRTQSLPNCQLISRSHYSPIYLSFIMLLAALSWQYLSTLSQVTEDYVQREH
Assay: Squalene Synthetase Inhibition Assay (SQ SYN)
Format: biochemical, rat (Sprague-Dawley)
Settings: rat liver microsomes, 10 μM 3H-FPP, 0.5 mM β-NADPH, pH 7.5, 10 min preincubation and 10 min incubation, 37° C.
From the text: These tests involve such factors as the effect of the compounds of Formula I to inhibit squalene synthesis.
Squalene Synthetase Inhibition Assay
The squalene synthetase assay used is a modification of the procedures described by Popjak (1969) and Poulter et al. (1989):
Popjak, G. Enzymes of sterol biosynthesis in liver and intermediates of sterol biosynthesis. Meth. Enzymol. 15: 393-454, 1969.
Poulter, C. D., Capson, T. L., Thompson, M. D. and Bard R. S. Squalene synthetase. Inhibition by ammonium analogues of carbocationic intermediates in the conversion of presqualene diphosphate to squalene. J. Am. Chem. Soc. 111: 3734-3739, 1989.
I. Animal Source and Tissue Preparation
Four male Sprague-Dawley rats weighing 100-120 gms are fed a low cholesterol rodent diet (#5012) obtained from Purina Mills, Inc. in Richmond, Ind.; and housed under reverse-light. Water is given ad lib. Rats are lightly anesthetized with ether and then decapitated. Livers are removed and enzymes are separated by the method described below.
All Chemicals are "A.C.S." in purity or better unless noted;
AquaSol®-2 scintillation fluid (NEF-952) (Du Pont/NEN Research Products, Boston, Mass.);
Anhydrous MgCl2 (M-8266), β-NADPH tetrasodium salt, reduced form (N-1630), Bovine serum albumin (A-6003), Cholesterol (C-8503);
Squalene (S-3626), (Sigma Chemical Co., St. Louis, Mo.);
Bio-Rad protein assay dye concentrate (Bio-Rad Laboratories, Richmond, Calif.);
Denatured ethanol, DMSO, HCl (1N), KOH, methanol, NaOH (0.1N, 1N), petroleum ether (M-280 grade), potassium phosphate dibasic, 2-propanol (Fisher Scientific, Pittsburgh, Pa.);
Zero grade nitrogen gas mixture (certified analysis) (Woodland Oxygen & Supply Co., Philadelphia, Pa.).
[1-^3 H(N)]-FPP, triammonium salt (NET-1042), (Du Pont/NEN, Boston, Mass.);
Non-radiolabeled FPP is prepared in-house. The solid FPP is aliquoted and stored at -80° C. FPP is dissolved in 70% ethanol/30% 0.25M NH4 HCO3 at the concentration of 10 mM and the solution is aliquoted (200 μl each) and stored at -80° C.
III. Preparation of Assay Substances
Test solutions are prepared fresh in 100% DMSO or dH2 O. Subsequent dilutions are made in the same solvent. Compounds are tested initially at 1 or 10 μM (final concentrations).
Potassium phosphate (50 mM, 8.71 g/l) pH 7.5 stock buffer is prepared and stored at 4° C. until use. Anhydrous MgCl2 is added to the phosphate buffer on the day of assay for a final concentration of 10 mM (95 mg/100 ml). The buffer is flushed with N2 before use.
Non-radiolabeled FPP is diluted to 50 μM (100 μl 10 mM cold FPP+19.9 ml phosphate buffer). Then, 14 μl (20×10^6 dpm) of ^3 H-FPP (0.5 mCi/ml, 0.011 mg/ml) is added. 200 μl of this mixture is added per assay tube for a final reaction concentration of 10 μM FPP (~200,000 dpm/assay tube).
37.5 mg of β-NADPH is added to 9 ml assay buffer for a 5 mM concentration of β-NADPH. The mixture is vortexed and 100 μl of this solution is added to each tube for a final assay concentration of 0.5 mM β-NADPH.
75 gm of KOH is dissolved in 500 ml of denatured ethanol for a 15% solution and stored at 0° C. until use. 1 ml of this solution is added per tube to terminate the reaction.
IV. Experimental Procedure
Immediately following decapitation, livers are removed one at a time from four rats. The livers are combined and weighed in a tared beaker. Assay buffer is added equal to three times the liver weight. The liver is first homogenized with a blender for thirty seconds, and then by a motor driven teflon pestle at a speed of 2.5. During homogenization, the liver is kept on ice. When the liver is fully homogenized, the homogenate is centrifuged at 10,000 g for 30 min at 4° C. in 50 ml capacity centrifuge tubes. The mitochondrial pellet is discarded and the supernatant is filtered through a layer of gauze moistened with a little buffer. This supernatant is recentrifuged at 105,000 g for one hour at 0° C. in an ultracentrifuge in 25 ml capacity ultracentrifuge tubes. […]

Structure (SMILES)	IC50 [nM]
O=P(O)(O)C(O)(CCNC1CCc2ccccc21)P(=O)(O)O (centres unmarked)	60
O=P(O)(O)C(O)(CCNC1C2CC3CC(C2)CC1C3)P(=O)(O)O (centres unmarked)	440
O=P(O)(O)C(O)(CCNC1CC2CCC1C2)P(=O)(O)O (centres unmarked)	600
O=P(O)(O)C(O)(CCNCC1CCCCCC1)P(=O)(O)O	1460
O=P(O)(O)C(O)(CCNC1CCCc2ccccc21)P(=O)(O)O (centres unmarked)	130
O=P(O)(O)C(O)(CCNC1CCN(Cc2ccccc2)CC1)P(=O)(O)O	2300
O=P(O)(O)C(O)(CCN1CCC(c2ccccc2)CC1)P(=O)(O)O	370
O=P(O)(O)C(O)(CCN1CCCC2CCCCC21)P(=O)(O)O (centres unmarked)	19
O=P(O)(O)C(O)(CCN1CC2CCC(CC2)C1)P(=O)(O)O	16
O=P(O)(O)C(O)(CCN1CCCCC1)P(=O)(O)O	720
O=P(O)(O)C(O)(CCN1CCCCCC1)P(=O)(O)O	130
CC1(C)CC2CC(C)(CN2CCC(O)(P(=O)(O)O)P(=O)(O)O)C1 (centres unmarked)	5060
O=P(O)(O)C(O)(CCN1CCC2(CCCCC2)CC1)P(=O)(O)O	390

System: 1,4-condensation between isopentenyl diphosphate and geranyl diphosphate
Assay: not given
Settings: J. Am. Chem. Soc., 1987, 109, 5544; cited from earlier work

Structure (SMILES)	inhibition of the 1,4-condensation (in words)
C=C(C)CCCP(=O)(O)CP(=O)(O)O	competitive inhibitors
